Assays:
[1] = biological target: T1, horseradish peroxidase (HRP) (Armoracia rusticana, UniProt P00433); assay: Horseradish peroxidase (HRP) catalyzed oxidation of DHTz to tetrazine; assay type: biochemical; settings: [3a] 8 μM; HRP 15 nM; first 10 seconds
T1 sequence (P00433 31-338): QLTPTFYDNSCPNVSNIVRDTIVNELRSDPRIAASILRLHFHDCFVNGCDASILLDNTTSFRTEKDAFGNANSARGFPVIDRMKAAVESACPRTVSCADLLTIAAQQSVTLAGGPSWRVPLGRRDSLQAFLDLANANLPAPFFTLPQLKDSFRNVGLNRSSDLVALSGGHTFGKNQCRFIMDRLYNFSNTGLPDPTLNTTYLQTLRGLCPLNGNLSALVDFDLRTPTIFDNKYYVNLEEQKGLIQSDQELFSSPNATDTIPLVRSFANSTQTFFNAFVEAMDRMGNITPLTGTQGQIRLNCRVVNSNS

[2] = Fe-porphyrin catalyzed oxidation of DHTz; settings: DHTz 35 uM in PBS pH 7.4, air
Description: 4-Oxo-4-((6-(6-(pyridin-2-yl)-1,4-dihydro-1,2,4,5-tetrazin-3-yl)pyridin-3-yl)amino)butanoic acid (35 uM in PBS (pH 7.4), 2 mL) was placed in a 1 cm×1 cm cuvette with a strongly stirred magnetic stir bar in an atmosphere of air. A solution of Fe-TMPyP (50 uM in PBS (pH 7.4), 20 uL) was added to the cuvette. The reaction was monitored by a UV-Vis spectrometer at 280 nm and 325 nm.
4-Oxo-4-((6-(6-(pyridin-2-yl)-1,4-dihydro-1,2,4,5-tetrazin-3-yl)pyridin-3-yl)amino)butanoic acid (35 uM in PBS (pH 7.4), 2 mL) was placed in a 1 cm×1 cm cuvette with a strongly stirred magnetic stir bar in an atmosphere of air. A solution of Fe-TPPS (50 uM in PBS (pH 7.4), 20 uL) was added to the cuvette. The reaction was monitored by a UV-Vis spectrometer at 280 nm and 325 nm.

ferricytochrome C = assay: Background oxidation of DHTZ by ferricytochrome C; assay type: biochemical; settings: ferricytochrome c two orders of magnitude higher concentration than APEX2
Source text: Superoxide has been reported to reduce ferricytochrome C Fe(III) to ferrocytochrome C Fe(II) and O2. Superoxide production during oxidation of DHTZ by APEX2 (SEQ ID NO:1) has been detected by following the reduction of ferricytochrome C Fe(III) to ferrocytochrome C Fe(II) (λmax=550 nm) by UV-Vis spectrometry (FIG. 11C-D). Two wavelengths, 325 nm for tetrazine formation and 550 nm for ferrocytochrome c formation, were followed where reduction of ferricytochrome C by the superoxide byproduct formed during DHTZ oxidation was observed. Addition of SOD stopped the formation of ferrocytochrome C, thus confirming that superoxide is formed during oxidation of DHTZ by APEX2 (SEQ ID NO:1). A stoichiometric background oxidation of DHTZ by ferricytochrome C was observed where the rate of the oxidation of 15 by ferricytochrome c was 2× slower than APEX2 (SEQ ID NO:1) at ferricytochrome c concentrations two orders of magnitude higher than APEX2 (SEQ ID NO:1). While oxidation of DHTZ by cytochrome C is not catalytic or feasible for intracellular applications, it does confirm that DHTZ undergoes two successive one-electron oxidations as cytochrome C cannot oxidize substrates by two-electron oxidations.
15 (10 μM) from stock solution was added to PBS containing 100 μM EDTA. Ferricytochrome C (60 μM) was dosed in after 10 seconds followed by addition of APEX2 (SEQ ID NO:1) ([…]). […]

| SMILES | Rate of HRP Oxidation of 3a [1] [M/s] | time to 50% completion of oxidation ([2]; Fe-TMPyP) [min] | time to 95% completion of oxidation ([2]; Fe-TMPyP) [min] | time to 50% completion of oxidation ([2]; Fe-TPPS) [min] | rate of oxidation by ferricytochrome c slower than APEX2 (ferricytochrome C) [×] |
| --- | --- | --- | --- | --- | --- |
| O=C(O)CCC(=O)Nc1ccc(C2=NNC(c3ccccn3)=NN2)nc1 [3a, 4-oxo-4-((6-(6-(pyridin-2-yl)-1,4-dihydro-1,2,4,5-tetrazin-3-yl)pyridin-3-yl)amino)butanoic Acid] | 3.4e-08 | ≤ 1 | ≤ 5 | ≤ 5 | – |
| O=C(O)CCCC(=O)Nc1ccc(C2=NNC(c3ccccn3)=NN2)nc1 [compound 15] | – | – | – | – | 2 |
